The record followed here is patent US9399646B2 (Genentech, Inc., priority 2010, dated 2016).

One assay relates to MCF-7 cells. The experiment in a line: Breast cancer cell viability assay (CellTiter-Glo, 5 days). The format is cell-based. The note with it: 5 days' compound exposure; for IC50: Homo sapiens, MCF7, 120 h. Put shortly: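 Eleven-point semilog compound series, final 0.3-0.000003 μM, added to overnight-adhered MCF-7 cells (320/well; RPMI, 10% FBS, 20 mM HEPES) for 5 days. Viability read by CellTiter-Glo luminescence, background from medium without cells subtracted, expressed relative to untreated cells.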
For orientation: Cellular ATP, detected with luciferase, serves as a proxy for viable cell number.

The target in a further assay is T1, ER-α in MCF-7 cells (Homo sapiens, UniProt P03372).
T1 sequence (P03372 1-595): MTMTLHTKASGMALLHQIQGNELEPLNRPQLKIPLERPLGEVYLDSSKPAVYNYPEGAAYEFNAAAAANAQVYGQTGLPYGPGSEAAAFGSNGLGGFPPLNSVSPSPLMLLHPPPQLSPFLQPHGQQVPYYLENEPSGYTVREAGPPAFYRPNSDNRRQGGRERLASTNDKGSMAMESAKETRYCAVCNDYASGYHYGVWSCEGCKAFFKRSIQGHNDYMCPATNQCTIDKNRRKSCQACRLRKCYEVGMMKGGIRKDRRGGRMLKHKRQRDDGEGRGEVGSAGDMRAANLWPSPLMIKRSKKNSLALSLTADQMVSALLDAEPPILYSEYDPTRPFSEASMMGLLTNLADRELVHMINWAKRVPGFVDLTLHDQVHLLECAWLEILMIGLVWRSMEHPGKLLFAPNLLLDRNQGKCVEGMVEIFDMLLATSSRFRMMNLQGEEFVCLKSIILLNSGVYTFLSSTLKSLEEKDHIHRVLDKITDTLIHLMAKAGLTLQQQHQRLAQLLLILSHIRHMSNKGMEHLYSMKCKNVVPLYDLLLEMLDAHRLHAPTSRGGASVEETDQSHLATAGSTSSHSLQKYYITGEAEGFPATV
Description: Breast cancer cell ER-α in cell western assay (SP1). The format is cell-based. Further details: endogenous in cells; host or cells: MCF-7. The settings on record: 4 or 24 hr post compound addition; for Emax: MCF7, SP1 antibody, read-out: ER-α In Cell Western Assay (SP1) Max Response; for DC50: SP1 antibody, read-out: ER-α In Cell Western Assay (SP1) IC50. Put shortly: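 Read-out is infrared in-cell western: SP1-detected ER intensity at 800 nm divided by DRAQ5 DNA intensity at 700 nm, relative to untreated wells ×100.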

Usually IC50 stands for the midpoint of a concentration-inhibition curve. Consider `CC/C(=C(/c1ccc(/C=C/C(=O)O)cc1)c1ccc2sncc2c1)c1ccccc1` [Compound 156, (E)-3-(4-((E)-1-(Benzo[d]isothiazol-5-yl)-2-phenylbut-1-en-1-yl)phenyl)acrylic acid], for which, in the assay with MCF-7 cells, the “MCF7 Viability Assay Max Response” value is “++ (++ = a single % value ≧ 40%)” and the IC50 is over 0.1 µM. On ER-α in MCF-7 cells, the Emax was at least 40% and the DC50 was over 0.1 µM.

As to `CC/C(=C(/c1ccc(/C=C/C(=O)O)cc1)c1ccc2sc(C)nc2c1)c1ccccc1` [Compound 159, (E)-3-(4-((E)-1-(2-Methylbenzo[d]thiazol-5-yl)-2-phenylbut-1-en-1-yl)phenyl)acrylic acid], in the assay with MCF-7 cells, the “MCF7 Viability Assay Max Response” value is listed as “++ (++ = a single % value ≧ 40%)” and the IC50 is over 0.1 µM. Also, on ER-α in MCF-7 cells, the Emax is at least 40% and the DC50 was over 0.1 µM.

`CC/C(=C(/c1ccc(/C=C/C(=O)O)cc1)c1ccc2[nH]ncc2c1F)c1ccc(Oc2ncccn2)cc1` [Compound 160, (E)-3-(4-((E)-1-(4-Fluoro-1H-indazol-5-yl)-2-(4-(pyrimidin-2-yloxy)phenyl)but-1-en-1-yl)phenyl)acrylic acid]: in the assay with MCF-7 cells, the “MCF7 Viability Assay Max Response” value is “++ (++ = a single % value ≧ 40%)” and the IC50 was at most 0.1 µM. Besides, at ER-α in MCF-7 cells, the Emax was at least 40% and the DC50 is at most 0.1 µM.

Turning to `CC/C(=C(/c1ccc(/C=C/C(=O)O)cc1)c1ccc2[nH]ncc2c1F)c1ccc(Oc2cnccn2)cc1` [Compound 161, (E)-3-(4-((E)-1-(4-Fluoro-1H-indazol-5-yl)-2-(4-(pyrazin-2-yloxy)phenyl)but-1-en-1-yl)phenyl)acrylic acid], in the assay on MCF-7 cells, the “MCF7 Viability Assay Max Response” value is “++ (++ = a single % value ≧ 40%)” and the IC50 was at most 0.1 µM. Also, at ER-α in MCF-7 cells, the Emax is at least 40% and the DC50 is at most 0.1 µM.

`CS(=O)(=O)c1ccc(Oc2ccc(/C(=C(\c3ccc(/C=C/C(=O)O)cc3)c3ccc4[nH]ncc4c3)C3CCC3)cc2)nc1` [Compound 162, (E)-3-(4-((E)-2-Cyclobutyl-1-(1H-indazol-5-yl)-2-(4-((5-(methylsulfonyl)pyridin-2-yl)oxy)phenyl)vinyl)phenyl)acrylic acid]: in the assay on MCF-7 cells, the “MCF7 Viability Assay Max Response” value was “++ (++ = a single % value ≧ 40%)” and the IC50 was at most 0.1 µM. Besides, at ER-α in MCF-7 cells, the Emax was at least 40% and the DC50 was at most 0.1 µM.

`CC/C(=C(/c1ccc(/C=C/C(=O)O)cc1)c1coc2c(OC)cccc12)c1ccccc1` [Compound 163, (E)-3-(4-((E)-1-(7-Methoxybenzofuran-3-yl)-2-phenylbut-1-en-1-yl)phenyl)acrylic acid]: in the assay on MCF-7 cells, the “MCF7 Viability Assay Max Response” value is listed as “++ (++ = a single % value ≧ 40%)” and the half-maximal inhibitory concentration (IC50) is at most 0.1 µM. Moreover, at ER-α in MCF-7 cells, the Emax was at least 40% and the DC50 is at most 0.1 µM.

In the case of `CC/C(=C(/c1ccc(/C=C/C(=O)O)cc1)c1coc2c(OC)cccc12)c1ccc(F)cc1Cl` [Compound 164, (E)-3-(4-((E)-2-(2-Chloro-4-fluorophenyl)-1-(7-methoxybenzofuran-3-yl)but-1-en-1-yl)phenyl)acrylic acid], in the assay on MCF-7 cells, the “MCF7 Viability Assay Max Response” value is “++ (++ = a single % value ≧ 40%)” and the IC50 is at most 0.1 µM. Besides, at ER-α in MCF-7 cells, the Emax was at least 40% and the DC50 was at most 0.1 µM.

For the compound `CC/C(=C(/c1ccc(/C=C/C(=O)O)cc1)c1ccc2ccncc2c1)c1ccccc1` [Compound 168, (E)-3-(4-((E)-1-(Isoquinolin-7-yl)-2-phenylbut-1-en-1-yl)phenyl)acrylic acid], in the assay with MCF-7 cells, the “MCF7 Viability Assay Max Response” value was “++ (++ = a single % value ≧ 40%)” and the IC50 was over 0.1 µM. Further, at ER-α in MCF-7 cells, the Emax was at least 40% and the DC50 was over 0.1 µM.

In the case of `CC/C(=C(/c1ccc(/C=C/C(=O)O)cc1)c1cc2ccccc2o1)c1ccc(F)cc1Cl` [Compound 169, (E)-3-(4-((E)-1-(Benzofuran-2-yl)-2-(2-chloro-4-fluorophenyl)but-1-en-1-yl)phenyl)acrylic acid], in the assay with MCF-7 cells, the “MCF7 Viability Assay Max Response” value is listed as “++ (++ = a single % value ≧ 40%)” and the half-maximal inhibitory concentration (IC50) is at most 0.1 µM. On ER-α in MCF-7 cells, the Emax was at least 40% and the DC50 is at most 0.1 µM.

On to `CC/C(=C(/c1ccc(/C=C/C(=O)O)cc1)c1coc2ccccc12)c1ccc(F)cc1Cl` [Compound 170, (E)-3-(4-((E)-1-(Benzofuran-3-yl)-2-(2-chloro-4-fluorophenyl)but-1-en-1-yl)phenyl)acrylic acid], for which, in the assay on MCF-7 cells, the “MCF7 Viability Assay Max Response” value is reported as “++ (++ = a single % value ≧ 40%)” and the 50% inhibitory concentration (IC50) is at most 0.1 µM. Besides, on ER-α in MCF-7 cells, the Emax was at least 40% and the DC50 was at most 0.1 µM.

`CCOC(=O)/C=C/c1ccc(/C(=C(/CC)c2ccccc2)c2ccc3cn[nH]c3c2)cc1` [Compound 172, (E)-Ethyl 3-(4-((E)-1-(1H-indazol-6-yl)-2-phenylbut-1-en-1-yl)phenyl)acrylate]: in the assay with MCF-7 cells, the “MCF7 Viability Assay Max Response” value was “+ (+ = a single % value < 40%)” and the IC50 is at most 0.1 µM. In addition, on ER-α in MCF-7 cells, the Emax was at least 40% and the DC50 was over 0.1 µM.

For `CCOC(=O)/C=C/c1ccc(/C(=C(/CC)c2ccccc2)c2cccc3[nH]ncc23)cc1` [Compound 175, (E)-Ethyl 3-(4-((E)-1-(1H-Indazol-4-yl)-2-phenylbut-1-en-1-yl)phenyl)acrylate], in the assay with MCF-7 cells, the “MCF7 Viability Assay Max Response” value is “+ (+ = a single % value < 40%)” and the 50% inhibitory concentration (IC50) was at most 0.1 µM. Besides, on ER-α in MCF-7 cells, the Emax was at least 40% and the DC50 was at most 0.1 µM.

For `CC/C(=C(/c1ccc2cc(/C=C/C(=O)O)ccc2c1)c1ccc2[nH]ncc2c1)c1ccccc1` [Compound 180, (E)-3-(6-((E)-1-(1H-Indazol-5-yl)-2-phenylbut-1-en-1-yl)naphthalen-2-yl)acrylic acid], in the assay on MCF-7 cells, the “MCF7 Viability Assay Max Response” value is “++ (++ = a single % value ≧ 40%)” and the concentration for half-maximal inhibition (IC50) was at most 0.1 µM. On ER-α in MCF-7 cells, the Emax was at least 40% and the DC50 was at most 0.1 µM.

In the case of `CC/C(=C(/c1csc(/C=C/C(=O)O)c1)c1ccc2[nH]ncc2c1)c1ccccc1` [Compound 186, (E)-3-(4-((Z)-1-(1H-Indazol-5-yl)-2-phenylbut-1-en-1-yl)thiophen-2-yl)acrylic acid], in the assay on MCF-7 cells, the “MCF7 Viability Assay Max Response” value was “+ (+ = a single % value < 40%)” and the half-inhibitory concentration (IC50) was over 0.1 µM. Further, the Emax at ER-α in MCF-7 cells is at least 40%.

On to `CC/C(=C(/c1ccc(/C=C/C(=O)O)nc1)c1ccc2[nH]ncc2c1)c1ccccc1` [Compound 189, (E)-3-(5-((Z)-1-(1H-Indazol-5-yl)-2-phenylbut-1-en-1-yl)pyridin-2-yl)acrylic acid], for which, in the assay on MCF-7 cells, the “MCF7 Viability Assay Max Response” value is “++ (++ = a single % value ≧ 40%)” and the IC50 was over 0.1 µM. Further, at ER-α in MCF-7 cells, the Emax is at least 40%.

With `CC/C(=C(/c1ccc(OCC(=O)O)cc1)c1ccc2[nH]ncc2c1)c1ccccc1` [Compound 190, (E)-2-(4-(1-(1H-Indazol-5-yl)-2-phenylbut-1-en-1-yl)phenoxy)acetic acid], in the assay on MCF-7 cells, the “MCF7 Viability Assay Max Response” value was “++ (++ = a single % value ≧ 40%)” and the 50% inhibitory concentration (IC50) was over 0.1 µM. On ER-α in MCF-7 cells, the Emax is at least 40% and the DC50 is over 0.1 µM.

Regarding `CC/C(=C(/c1ccc(OCCN2CCCC2)cc1)c1ccc2[nH]ncc2c1)c1ccccc1` [Compound 191, (E)-5-(2-Phenyl-1-(4-(2-(pyrrolidin-1-yl)ethoxy)phenyl)but-1-en-1-yl)-1H-indazole], in the assay on MCF-7 cells, the “MCF7 Viability Assay Max Response” value is “++ (++ = a single % value ≧ 40%)” and the IC50 is at most 0.1 µM. Besides, on ER-α in MCF-7 cells, the Emax is at least 40% and the DC50 was at most 0.1 µM.

Take `CC/C(=C(/c1ccc2c(c1)CC(C(=O)O)C2)c1ccc2[nH]ncc2c1)c1ccccc1` (centres unmarked) [Compound 192, (E)-5-(1-(1H-Indazol-5-yl)-2-phenylbut-1-en-1-yl)-2,3-dihydro-1H-indene-2-carboxylic acid]: in the assay on MCF-7 cells, the “MCF7 Viability Assay Max Response” value is listed as “++ (++ = a single % value ≧ 40%)” and the IC50 is over 0.1 µM. On ER-α in MCF-7 cells, the Emax is at least 40% and the DC50 is over 0.1 µM.

Turning to `CCOC(=O)/C=C/c1ccc(/C(=C(/CC)c2ccc(F)cc2Cl)c2ccc3c(cnn3C3CCCCO3)c2)cc1` (centres unmarked) [Compound 193, (E)-Ethyl 3-(4-((E)-2-(2-chloro-4-fluorophenyl)-1-(1-(tetrahydro-2H-pyran-2-yl)-1H-indazol-5-yl)but-1-en-1-yl)phenyl)acrylate], in the assay with MCF-7 cells, the “MCF7 Viability Assay Max Response” value is recorded as “+ (+ = a single % value < 40%)” and the half-inhibitory concentration (IC50) is at most 0.1 µM. Moreover, on ER-α in MCF-7 cells, the Emax was at least 40% and the DC50 was over 0.1 µM.
